Tests used:
MKK7 [1] = molecular target: T1, MKK7 (Homo sapiens, UniProt O14733, S271D/T275D); parameters: method as in Schröder et al., 2020; conditions: with vs without kinase-inhibitor pre-incubation; Figure 6; ref Schröder et al., 2020; cited from earlier work
T1 construct: Recombinant MKK7 (full-length, S287D/T291D); made in house
T1 sequence (O14733 1-435 isoform O14733-3 S287D/T291D): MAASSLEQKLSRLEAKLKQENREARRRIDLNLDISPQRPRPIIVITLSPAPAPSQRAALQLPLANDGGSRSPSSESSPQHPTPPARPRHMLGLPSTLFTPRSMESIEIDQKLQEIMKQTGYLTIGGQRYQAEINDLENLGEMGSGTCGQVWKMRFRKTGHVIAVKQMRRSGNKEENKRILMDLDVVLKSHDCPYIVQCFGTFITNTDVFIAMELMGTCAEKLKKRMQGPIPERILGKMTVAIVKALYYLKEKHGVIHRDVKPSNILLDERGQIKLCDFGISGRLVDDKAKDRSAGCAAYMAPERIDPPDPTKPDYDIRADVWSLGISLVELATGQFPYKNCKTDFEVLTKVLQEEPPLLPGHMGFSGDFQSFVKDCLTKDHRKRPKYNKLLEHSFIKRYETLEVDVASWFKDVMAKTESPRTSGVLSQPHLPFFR

MKK7 [2] = molecular target: T1, MKK7; test: ADP-Glo assay with kinase-inhibitor pre-incubation step (phosphorylation of cov-JNK3 substrate by MKK7); format: biochemical; conditions: for luminescence intensity: raw data; for Normalized Intensity (%): normalized to Control DMSO only and Control No kinase
Experimental: The protocol described here uses Echo® 550 liquid handler. However, when performing with manual pipetting, adjusting pipetting volume of each component of the kinase reaction is required with an example provided in the above table. We had performed the following protocol using both pipetting methods, and observed similar assay quality with an example shown in Figure 3.
This part of the protocol describes a variation of the ADP-Glo^TM assay that includes a pre-incubation step between the tested inhibitors and MKK7 prior to an addition of ATP (Figure 4). […] Thus, apparent greater inhibitory potencies would be expected. The protocol below describes an experiment testing three inhibitors using fixed concentrations of 25 nM for MKK7 kinase, 30 μM for cov-JNK3 substrate and 100 μM for ATP with the layout of the assay plate shown in Figure 5. • 1. Thaw ADP-Glo^TM assay reagents. Place 10 mM ultra-pure ATP immediately on ice, while the other reagents can be kept at 22°C–25°C. • 2. Quick thaw MKK7 kinase and 10× cov-JNK3 substrate and spin both using benchtop centrifuge at high speed at 4°C for 10 min. Transfer clear supernatant into a new tube and keep on ice. • 3. Prepare 75 μL of 10× MKK7 kinase solution by diluting MKK7 to 250 nM in protein storage buffer. Keep the solution on ice until further use. • 4. Prepare the following mixtures and keep them on ice until further use. • a. Mixture 1: one part of 10× MKK7 kinase solution, one part of 10× cov-JNK3 substrate and eight part of the reaction buffer. For example, 500 μL of Mixture 1 contains 50 μL of 10× MKK7 kinase solution, 50 μL of 10× cov-JNK3 substrate and […] of the reaction buffer. This 500-μL Mixture 1 is adequate for approximately 100 reactions and will be used for the reactions containing inhibitors and the “Control DMSO only” wells (see Figure 5). • b. Mixture 2: one part of protein storage buffer, one part of 10× cov-JNK3 substrate and eight part of the reaction buffer. For example, 50 μL of Mixture 2 is made from 5 μL of protein storage buffer, 5 μL of 10× cov-JNK3 substrate and 45 μL of the reaction buffer. This 50-μL Mixture 2 is adequate for 10 reactions and is for the “Control No kinase” wells (see Figure 5). • c. Mixture 3: one part of 10× MKK7 kinase solution, one part of protein storage buffer and eight part of the reaction buffer. For example, 50 μL of Mixture 3 is made from 5 μL of 10× MKK7 kinase solution, 5 μL of protein storage buffer and 45 μL of reaction buffer. This 50-μL Mixture 3 is adequate for 10 reactions and is for the “Control No substrate” wells (see Figure 5) • 5. Prepare a serial dilution of inhibitors in a 384-well assay plate using the “Dose response” setting in Echo®550 acoustic liquid handler according to the manufacture’s manual. For this experiment, the dilution series of three inhibitors at 11 concentrations is prepared by the following steps (see also Figure 5 and Data S1 for an example input for Echo® dose response pipetting): • a. Prepare 5 mM inhibitor stock solutions in DMSO and transfer 25 μL of each into three different wells of an Echo® source plate. Fill the 4th well with 30 μL DMSO. • b. Use the “Dose response” program in Echo® 550 liquid handler with a DMSO backfill option to aliquot the correct volumes of the inhibitors and DMSO into each reaction wells in the assay plate according to the plate layout in Figure 5. Note that two intermediate compound dilutions will be created by the ECHO® dose response program (see Data S1 for an example input for Echo® dose response pipetting). 50 nL of DMSO should be transferred to each control well to ensure homogeneous assay conditions. The total transfer volume of 50 nL of either inhibitor alone, inhibitor plus DMSO or DMSO alone is fixed to ensure constant 1% final DMSO concentration (see Data S1 for an example input for Echo® dose response pipetting). • 6. […]

[3] = [Inhibitor] 1.49E-05 M (log -4.83)
[4] = [Inhibitor] 1.65E-08 M (log -7.78)
[5] = [Inhibitor] 1.65E-09 M (log -8.78)
[6] = [Inhibitor] 2.43E-10 M (log -9.62)
[7] = [Inhibitor] 2.91E-07 M (log -6.54)
[8] = [Inhibitor] 4.95E-05 M (log -4.31)
[9] = [Inhibitor] 4.95E-06 M (log -5.31)
[10] = [Inhibitor] 4.95E-09 M (log -8.31)
[11] = [Inhibitor] 8.08E-10 M (log -9.09)
[12] = [Inhibitor] 8.08E-11 M (log -10.09)
[13] = [Inhibitor] 9.71E-07 M (log -6.01)
[14] = [Inhibitor] 9.71E-08 M (log -7.01)

| SMILES | luminescence intensity (MKK7 [2]; [3]) | luminescence intensity (MKK7 [2]; [4]) | luminescence intensity (MKK7 [2]; [5]) | luminescence intensity (MKK7 [2]; [6]) | luminescence intensity (MKK7 [2]; [7]) | luminescence intensity (MKK7 [2]; [8]) | luminescence intensity (MKK7 [2]; [9]) | luminescence intensity (MKK7 [2]; [10]) | luminescence intensity (MKK7 [2]; [11]) | luminescence intensity (MKK7 [2]; [12]) | luminescence intensity (MKK7 [2]; [13]) | luminescence intensity (MKK7 [2]; [14]) | Normalized Intensity (%) (MKK7 [2]; log[Inhibitor] -4.31) | Normalized Intensity (%) (MKK7 [2]; log[Inhibitor] -4.83) | Normalized Intensity (%) (MKK7 [2]; log[Inhibitor] -5.31) | Normalized Intensity (%) (MKK7 [2]; log[Inhibitor] -6.01) | Normalized Intensity (%) (MKK7 [2]; log[Inhibitor] -6.54) | Normalized Intensity (%) (MKK7 [2]; log[Inhibitor] -7.01) | Normalized Intensity (%) (MKK7 [2]; log[Inhibitor] -7.78) | Normalized Intensity (%) (MKK7 [2]; log[Inhibitor] -8.31) | other results |
| --- | --- | --- | --- | --- | --- | --- | --- | --- | --- | --- | --- | --- | --- | --- | --- | --- | --- | --- | --- | --- | --- |
| CC(=O)c1cnc2ccc(-c3cc(Cl)c(O)c(Cl)c3)nc2c1N[C@H]1CC[C@H](CN(C)C)CC1 [OTSSP167] | 50306 | 167511 | 188762 | 186492 | 53403 | 62181 | 22921 | 186941 | 193825 | 208349 | 43374 | 94669 | 22.55 | 15.89 | 0.52 | 12.00 | 17.63 | 40.78 | 81.65 | 92.55 | shift of inhibitory potencies (IC50) between the two assay variants (MKK7 [1]): less pronounced; Normalized Intensity (%) (MKK7 [2]; log[Inhibitor] -8.78): 93.57%; Normalized Intensity (%) (MKK7 [2]; log[Inhibitor] -9.09): 96.42%; Normalized Intensity (%) (MKK7 [2]; log[Inhibitor] -9.62): 92.30%; Normalized Intensity (%) (MKK7 [2]; log[Inhibitor] -10.09): 104.56% |
| C=CC(=O)N1CCC[C@@H](n2nc(-c3ccc(Oc4ccccc4)cc3)c3c(N)ncnc32)C1 [Ibrutinib] | 18884 | 157972 | 195602 | 176476 | 49318 | 52382 | 64212 | 138435 | 152383 | 159956 | 22472 | 121319 | 17.05 | -1.74 | 23.69 | 0.27 | 15.33 | 55.73 | 76.30 | 65.34 | Normalized Intensity (%) (MKK7 [2]; log[Inhibitor] -8.78): 97.41%; Normalized Intensity (%) (MKK7 [2]; log[Inhibitor] -9.09): 73.16%; Normalized Intensity (%) (MKK7 [2]; log[Inhibitor] -9.62): 86.68%; Normalized Intensity (%) (MKK7 [2]; log[Inhibitor] -10.09): 77.41% |
